Reference: patent US12012417B2, “N-substituted tetrahydrothienopyridine derivatives and uses thereof” (NOVARTIS AG, priority 2018, dated 2024)

Tests used:
[1] = system: Dengue 1 virus MY97-10245; assay: High-content imaging cell-based flavivirus immunodetection (HCl-CFI) assay, Dengue 1; conditions: for EC50: Dengue virus, A549, 48 h, read-out: Dengue 1 virus MY97-10245 in A549 using HCl [Inhibitor/IC50] Qualified AC50
[2] = system: Dengue 2 virus MY97-10340; assay: High-content imaging cell-based flavivirus immunodetection (HCl-CFI) assay, Dengue 2; conditions: for EC50: Dengue virus, A549, 48 h, read-out: Dengue 2 virus MY97-10340 in A549 using HCl [Inhibitor/IC50] Qualified AC50, A549 cells, MOI 0.3, 48 h, viral E protein expression
How it was run: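 A549 cells infected at MOI 0.3, treated with 3-fold, 10-point compound dilutions for 48 h. After paraformaldehyde fixation, viral E protein immunostained with 4G2 antibody and nuclei counterstained; imaged by high-content imaging. EC50 = concentration reducing E protein expression by 50%, from dose-response curves.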

[3] = system: Dengue 3 virus MY05-34640-WT-C6/36; assay: High-content imaging cell-based flavivirus immunodetection (HCl-CFI) assay, Dengue 3; conditions: for EC50: Dengue virus, A549, 48 h, read-out: Dengue 3 virus MY05-34640-WT-C6/36 in A549 using HCl [Inhibitor/IC50] Qualified AC50
[4] = system: Dengue 4 virus MY01-22713; assay: High-content imaging cell-based flavivirus immunodetection (HCl-CFI) assay, Dengue 4; conditions: for EC50: Dengue virus, A549, 48 h, read-out: Dengue 4 virus MY01-22713 in A549 using HCl [Inhibitor/IC50] Qualified AC50, A549 cells, 48 h, viral E protein expression
[5] = A549 cells, 48 h, viral E protein expression

| Structure (SMILES) | EC50 [1] [nM] | EC50 [2] [nM] | EC50 [3] [nM] | EC50 [4] [nM] | Dengue 1 virus MY97-10245 in A549 using HCl [Inhibitor/IC50] Qualified AC50 [1, 5] | Dengue 2 virus MY97-10340 in A549 using HCl [Inhibitor/IC50] Qualified AC50 ([2]; A549 cells, MOI 0.3, 48 h, viral E protein expression) | Dengue 3 virus MY05-34640-WT-C6/36 in A549 using HCl [Inhibitor/IC50] Qualified AC50 [3, 5] | Dengue 4 virus MY01-22713 in A549 using HCl [Inhibitor/IC50] Qualified AC50 [4, 5] |
| --- | --- | --- | --- | --- | --- | --- | --- | --- |
| N#Cc1c(NC(=O)Cc2ccc(S(N)(=O)=O)cc2)sc2c1CCN(Cc1cccc(F)c1)CC2 [Example 124, N-(3-cyano-6-(3-fluorobenzyl)-5,6,7,8-tetrahydro-4H-thieno[2,3-d]azepin-2-yl)-2-(4-sulfamoylphenyl)acetamide] | 100 to 1000 | 100 to 1000 | < 100 | < 100 |  |  |  |  |
| CS(=O)(=O)c1ccc(CC(=O)Nc2sc3c(c2C#N)CCN(Cc2ccc(F)c(F)c2)C3)cc1 [Example 117, N-(3-cyano-6-(3,4-difluorobenzyl)-4,5,6,7-tetrahydrothieno[2,3-c]pyridin-2-yl)-2-(4-(methylsulfonyl)phenyl)acetamide] | 100 to 1000 | 100 to 1000 | 100 to 1000 | < 100 |  |  |  |  |
| N#Cc1c(NC(=O)Cc2ccc(S(N)(=O)=O)cc2)sc2c1CCN(Cc1ccc(F)cc1Cl)C2 [Example 107, N-(6-(2-chloro-4-fluorobenzyl)-3-cyano-4,5,6,7-tetrahydrothieno[2,3-c]pyridin-2-yl)-2-(4-sulfamoylphenyl)acetamide] | 100 to 1000 | 100 to 1000 | 100 to 1000 | < 100 |  |  |  |  |
| COc1cc(CC(=O)Nc2sc3c(c2C#N)CN(CC2CC(F)(F)C2)CC3)ccc1S(C)(=O)=O [Example 51, N-(3-cyano-5-((3,3-difluorocyclobutyl)methyl)-4,5,6,7-tetrahydrothieno[3,2-c]pyridin-2-yl)-2-(3-methoxy-4-(methylsulfonyl)phenyl)acetamide] | 100 to 1000 | 100 to 1000 | 100 to 1000 | 100 to 1000 |  |  |  |  |
| CC1(C)CS(=O)(=O)c2ccc(CC(=O)Nc3sc4c(c3C#N)CN(Cc3cccc(F)c3)C(C)(C)C4)cc21 [Example 80, N-(3-cyano-5-(3-fluorobenzyl)-6,6-dimethyl-4,5,6,7-tetrahydrothieno[3,2-c]pyridin-2-yl)-2-(3,3-dimethyl-1,1-dioxido-2,3-dihydrobenzo[b]thiophen-5-yl)acetamide] | 100 to 1000 | < 100 | < 100 | < 100 |  |  |  |  |
| CC1Cc2sc(NC(=O)Cc3ccc(S(N)(=O)=O)cc3)c(C#N)c2CN1CC1CC(F)(F)C1 (centres unmarked) [Example 56, N-(3-cyano-5-((3,3-difluorocyclobutyl)methyl)-6-methyl-4,5,6,7-tetrahydrothieno[3,2-c]pyridin-2-yl)-2-(4-sulfamoylphenyl)acetamide] | > 1000 | 100 to 1000 | 100 to 1000 | < 100 |  |  |  |  |
| CC1Cc2sc(NC(=O)Cc3ccc(S(N)(=O)=O)cc3)c(C#N)c2CN1CC1CCC1 (centres unmarked) [Example 60, N-(3-cyano-5-(cyclobutylmethyl)-6-methyl-4,5,6,7-tetrahydrothieno[3,2-c]pyridin-2-yl)-2-(4-sulfamoylphenyl)acetamide] | > 1000 | 100 to 1000 | 100 to 1000 | 100 to 1000 |  |  |  |  |
| CC1Cc2c(sc(NC(=O)Cc3ccc(S(N)(=O)=O)cc3)c2C#N)CN1Cc1cccc(F)c1 (centres unmarked) [Example 123, N-(3-cyano-6-(3-fluorobenzyl)-5-methyl-4,5,6,7-tetrahydrothieno[2,3-c]pyridin-2-yl)-2-(4-sulfamoylphenyl)acetamide] |  |  |  |  | + (±≥1 μM) | ++ (1 μM>++≥0.1 μM) | ++ (1 μM>++≥0.1 μM) | ++ (1 μM>++≥0.1 μM) |
| N#Cc1c(NC(=O)Cc2ccc(S(N)(=O)=O)cc2)sc2c1CN(CC1CCCC1)CC2 [Example 4, N-(3-cyano-5-(cyclopentylmethyl)-4,5,6,7-tetrahydrothieno[3,2-c]pyridin-2-yl)-2-(4-sulfamoylphenyl)acetamide] | 100 to 1000 | < 100 | 100 to 1000 | < 100 |  |  |  |  |
| COc1cccc(CC(=O)Nc2sc3c(c2C#N)CN(Cc2cccc(F)c2)CC3)c1OC [Example 34, N-(3-cyano-5-(3-fluorobenzyl)-4,5,6,7-tetrahydrothieno[3,2-c]pyridin-2-yl)-2-(2,3-dimethoxyphenyl)acetamide] | > 1000 | > 1000 | 100 to 1000 | 100 to 1000 |  |  |  |  |
| CC1Cc2sc(NC(=O)Cc3ccc(S(N)(=O)=O)cc3)c(C#N)c2CN1Cc1cc(F)cc(F)c1 (centres unmarked) [Example 85, N-(3-cyano-5-(3,5-difluorobenzyl)-6-methyl-4,5,6,7-tetrahydrothieno[3,2-c]pyridin-2-yl)-2-(4-sulfamoylphenyl)acetamide] | 100 to 1000 | < 100 | < 100 | < 100 |  |  |  |  |
| COc1cccc(CC(=O)Nc2sc3c(c2C#N)CN(Cc2cccc(F)c2)CC3)c1Cl [Example 41, 2-(2-chloro-3-methoxyphenyl)-N-(3-cyano-5-(3-fluorobenzyl)-4,5,6,7-tetrahydrothieno[3,2-c]pyridin-2-yl)acetamide] | > 1000 | 100 to 1000 | 100 to 1000 | 100 to 1000 |  |  |  |  |
| CS(=O)(=O)Nc1ccc(CC(=O)Nc2sc3c(c2C#N)CN(Cc2cccc(F)c2)CC3)cc1 [Example 46, N-(3-cyano-5-(3-fluorobenzyl)-4,5,6,7-tetrahydrothieno[3,2-c]pyridin-2-yl)-2-(4-(methylsulfonamido)phenyl)acetamide] | 100 to 1000 | 100 to 1000 | 100 to 1000 | 100 to 1000 |  |  |  |  |
| CC1Cc2sc(NC(=O)Cc3ccc(S(N)(=O)=O)cc3)c(C#N)c2CN1CCc1ccccc1 (centres unmarked) [Example 67, N-(3-cyano-6-methyl-5-phenethyl-4,5,6,7-tetrahydrothieno[3,2-c]pyridin-2-yl)-2-(4-sulfamoylphenyl)acetamide] | > 1000 | < 100 | < 100 | < 100 |  |  |  |  |
| COC(=O)c1cccc(CN2CCc3c(sc(NC(=O)Cc4ccc(S(N)(=O)=O)cc4)c3C#N)C2)c1 [Example 108, Methyl 3-((3-cyano-2-(2-(4-sulfamoylphenyl)acetamido)-4,7-dihydrothieno[2,3-c]pyridin-6(5H)-yl)methyl)benzoate] | 100 to 1000 | < 100 | < 100 | < 100 |  |  |  |  |
| N#Cc1c(NC(=O)Cc2ccc(S(N)(=O)=O)cc2)sc2c1CCCN(Cc1cccc(F)c1)C2 [Example 126, N-(3-cyano-7-(3-fluorobenzyl)-5,6,7,8-tetrahydro-4H-thieno[2,3-c]azepin-2-yl)-2-(4-sulfamoylphenyl)acetamide] | 100 to 1000 | 100 to 1000 | 100 to 1000 | < 100 |  |  |  |  |
| N#Cc1c(NC(=O)Cc2ccc3c(c2)CNC3)sc2c1CN(CC1CCCCC1)CC2 [Example 20, N-(3-cyano-5-(cyclohexylmethyl)-4,5,6,7-tetrahydrothieno[3,2-c]pyridin-2-yl)-2-(isoindolin-5-yl)acetamide] | > 1000 | 100 to 1000 | > 1000 | > 1000 |  |  |  |  |
| N#Cc1c(NC(=O)Cc2ccc(S(=O)(=O)C(F)F)cc2)sc2c1CN(CC1CCCCC1)CC2 [Example 11, N-(3-cyano-5-(cyclohexylmethyl)-4,5,6,7-tetrahydrothieno[3,2-c]pyridin-2-yl)-2-(4-((difluoromethyl)sulfonyl)phenyl)acetamide] | < 100 | 100 to 1000 | < 100 | < 100 |  |  |  |  |
| N#Cc1c(NC(=O)Cc2ccc3c(c2)CNS3(=O)=O)sc2c1CN(Cc1cccc(F)c1)CC2 [Example 23, N-(3-cyano-5-(3-fluorobenzyl)-4,5,6,7-tetrahydrothieno[3,2-c]pyridin-2-yl)-2-(1,1-dioxido-2,3-dihydrobenzo[d]isothiazol-5-yl)acetamide] | 100 to 1000 | 100 to 1000 | < 100 | 100 to 1000 |  |  |  |  |
| COC(=O)c1cccc(CN2CCc3c(sc(NC(=O)Cc4ccc(S(C)(=O)=O)cc4)c3C#N)C2)c1 [Example 120, methyl 3-((3-cyano-2-(2-(4-(methylsulfonyl)phenyl)acetamido)-4,7-dihydrothieno[2,3-c]pyridin-6(51-1)-yl)methyl)benzoate] | > 1000 | 100 to 1000 | 100 to 1000 | < 100 |  |  |  |  |
| N#Cc1c(NC(=O)Cc2ccc(S(N)(=O)=O)cc2)sc2c1CCN(Cc1ccc(F)c(F)c1)C2 [Example 105, N-(3-cyano-6-(3,4-difluorobenzyl)-4,5,6,7-tetrahydrothieno[2,3-c]pyridin-2-yl)-2-(4-sulfamoylphenyl)acetamide] | > 1000 | 100 to 1000 | 100 to 1000 | 100 to 1000 |  |  |  |  |
| N#Cc1c(NC(=O)Cc2ccc(CS(N)(=O)=O)cc2)sc2c1CN(CC1CCCCC1)CC2 [Example 17, N-(3-cyano-5-(cyclohexylmethyl)-4,5,6,7-tetrahydrothieno[3,2-c]pyridin-2-yl)-2-(4-(sulfamoylmethyl)phenyl)acetamide] | 100 to 1000 | < 100 | < 100 | < 100 |  |  |  |  |
| N#Cc1c(NC(=O)Cc2ccc(S(N)(=O)=O)cc2)sc2c1CCN(Cc1ccccc1F)C2 [Example 99, N-(3-cyano-6-(2-fluorobenzyl)-4,5,6,7-tetrahydrothieno[2,3-c]pyridin-2-yl)-2-(4-sulfamoylphenyl)acetamide] | > 1000 | 100 to 1000 | 100 to 1000 | 100 to 1000 |  |  |  |  |
